From patent publication US9879013B2, “Purinone derivative” (ONO PHARMACEUTICAL CO., LTD., priority 2010, dated 2018) come the findings set out here.

Each structure is given as a SMILES string.

The target of one series is Human CYP2C19 (Homo sapiens (Human), UniProt P33261). Briefly: Inhibitory action on human CYP2C19. The class given is in vitro ADME. On the procedure: (§1) Measurement of the Inhibitory Activity on Drug-Metabolizing Enzymes (Inhibitory Action on Human CYP2C8 and Human CYP2C19)
The reaction was carried out in a 96-well plate. The positive control substances (CYP2C8: ketoconazole, CYP2C19: tranylcypromine) were adjusted (CYP2C8: 0.6 and 6 mmol/L, CYP2C19: 0.9 and 9 mmol/L) with DMSO to concentrations that were 300 times the final concentration, and solutions were prepared (CYP2C8: 8 and 80 μmol/L, CYP2C19: 12 and 120 μmol/L) by 75× dilution with purified water that contained 2.7% acetonitrile. The test compounds were adjusted to […] with DMSO and were adjusted to 4 and 40 μmol/L by 75× dilution with purified water that contained 2.7% acetonitrile. A reaction mixture was then prepared (the numerical values are final concentrations) by the addition of potassium phosphate buffer (pH 7.4), magnesium chloride ([…]), substrate (CYP2C8: dibenzylfluorescein 1 μmol/L, CYP2C19: 3-cyano-7-ethoxycoumarin 25 μmol/L), and E. coli-expressed liver microsome CYP2C8 (Cypex, 10 pmol/L) and CYP2C19 (Cypex, 3 pmol/L). 100 μL of this reaction mixture and 50 μL of the test compound prepared as described above and the positive control solution prepared as described above were dispensed into each well and pre-incubation was carried out at 10 minutes for 37° C. The reaction was started by the addition of 50 μL NADPH solution (final concentration=1 mmol/L) and incubation was carried out for 30 minutes at 37° C. The fluorescence intensity was measured (CYP2C8: excitation wavelength=485 nm, fluorescence wavelength=538 nm; CYP2C19: excitation wavelength=409 nm, fluorescence wavelength=460 nm) immediately after the addition of the NADPH and after incubation for 30 minutes.

Another series deals with Btk (Homo sapiens (Human), UniProt Q06187). Briefly: Btk enzyme inhibitory activity (Z'-LYTE Kinase Assay Kit-Tyr1 peptide). Type of series: biochemical. As to conditions: Tyr-1 peptide 4 μM, Btk 5 nM, ATP 36 μM, 1 hour at 30° C. On the procedure: The Btk enzyme inhibitory activity was measured, based on the protocol provided by the manufacturer, using Btk (Invitrogen Corporation) and the Z′-LYTE® Kinase Assay Kit-Tyr1 peptide (Invitrogen Corporation), which contained the following reagents: Tyr-1 peptide, Thy-1 phosphopeptide, 5× kinase buffer, ATP, development reagent B, development buffer, and stop reagent.
5 μL/well of a solution of the test compound diluted with dimethyl sulfoxide (DMSO), or DMSO, and 10 μL/well of the substrate/enzyme mixture solution were dispensed to a 96-well assay plate and a reaction was carried out for 20 minutes at 30° C. […] The enzymatic reaction was then stopped by adding 10 μL of the stop solution.
The percent inhibition (%) by the test compound was calculated using the following equation. percent inhibition (%) of phosphorylation=1−{(AC−AX)/(AC−AB)}×100 [E1]

For series [1], the system named is B cells (CD20-positive CD3-negative cells) of human PBMC. Briefly: B cell activation using human PBMC (CD69-positive signal, FACS). The class given is cell-based. As to conditions: anti-IgM antibody 1 μg/mL / IL-4 3 ng/mL, 22 hours. On the procedure:
(§2) Measurement of B Cell Activation or T Cell Activation Using Human PBMC
(§3) A 10 mmol/L solution of the test compound in DMSO was dispensed into a 96-well plate (Nunc) and a 5× dilution series was prepared using DMSO. A 100× concentration test compound dilution solution was prepared by an additional 10× dilution with RPMI1640 medium (contained 10% HI-FBS, 1% penicillin). Human peripheral blood mononuclear cells (PBMC) were diluted with the medium to provide a density of 2×10^6 cells/mL. 396 μL of the cell suspension was added to a 96-well plate into which 4 μL of the 100× concentration test compound dilution solution or the solvent (10% DMSO) had already been introduced and incubation was performed for 10 minutes at 37° C. and 5% CO2. 10 μL of an anti-IgM antibody (Southern Biotech)/IL-4 (R & D Systems) solution or an anti-CD3/CD28 antibody bead suspension (Invitrogen Corporation) was added to a 96-well plate and 90 μL of the cell suspension prepared as described above was also added (final concentrations: anti-IgM antibody=1 μg/mL, IL-4=3 ng/mL, and anti-CD3/CD28 antibody beads=2×10^6 beads/mL). 10 μL of the medium was added to the unstimulated sample wells in place of these stimulating substances, and standing at 37° C. and 5% CO2 was again performed. Incubation was carried out for 16 hours in the case of the evaluation of T cell activation and for 22 hours in the case of the evaluation of B cell activation. 100 μL Cytofix Buffer (BD Biosciences) was added; holding for 15 minutes at 37° C. was performed; centrifugation for 10 minutes at 1500 rpm was carried out; and the supernatant was removed. 200 μL of Perm buffer II (BD Biosciences) at −20° C. was added; holding for 30 minutes on ice was performed; centrifugation for 10 minutes at 1500 rpm was carried out; and the supernatant was removed. 0.5 mL Stain buffer (BD Biosciences) was added and centrifugation was carried out for 10 minutes at 1500 rpm. 100 μL of a mixed antibody solution was added and incubation was performed for 30 minutes on ice in the dark. The antibody was the 10× dilution with Stain Buffer of the 1:1:1 mixture of PerCP-labeled anti-CD3 antibody (BD Biosciences), AF488-labeled anti-CD20 antibody (BD Biosciences), and PE-labeled anti-CD69 antibody (BD Biosciences). 0.4 mL Stain Buffer was added and the supernatant was removed. […] The CD69-positive signal (average fluorescence intensity) of the CD20-positive CD3-negative cells (B cells) or CD3-positive CD20-negative cells (T cells) was measured. After subtracting the value for the unstimulated sample, the % inhibition with reference to the value for the stimulated control sample was determined. The % inhibition was graphically plotted using Prism (ver. 5.01 J, GraphPad Software) and the IC50 value was determined.

For series [2], the system named is T cells (CD3-positive CD20-negative cells) of human PBMC. Briefly: T cell activation using human PBMC (CD69-positive signal, FACS). The following applies: anti-CD3/CD28 antibody beads, 16 hours. The class given is cell-based. On the procedure: as §2, §3
The next series addresses Human CYP2C8 (Homo sapiens (Human), UniProt P10632). Briefly: Inhibitory action on human CYP2C8. Type of series: in vitro ADME. Here is the method:
as §1
The reaction was carried out in a 96-well plate. […] 100 μL of this reaction mixture and 50 μL of the test compound prepared as described above and the positive control solution prepared as described above were dispensed into each well and pre-incubation was carried out at 10 minutes for 37° C. The reaction was started by the addition of 50 μL NADPH solution (final concentration=1 mmol/L) and incubation was carried out for 30 minutes at 37° C.

For a further series, the target named is LynA (Homo sapiens (Human), UniProt P07948). Briefly: LynA inhibitory activity, selectivity for Btk (Z'-LYTE kinase assay). The following applies: ratio of the IC50 values of the individual kinases. Type of series: biochemical. On the procedure:
(§4) The inhibitory activity for other kinases (for example, Lck, Fyn, and LynA (all from Invitrogen Corporation) was measured in the same manner as described above using the particular kinase in place of the Btk.

The target in a further series is Fyn (Homo sapiens (Human), UniProt P06241). Briefly: Fyn inhibitory activity, selectivity for Btk (Z'-LYTE kinase assay). Type of series: biochemical. The following applies: ratio of the IC50 values of the individual kinases. On the procedure: as §4
The target in another series is Lck (Homo sapiens (Human), UniProt P06239). Briefly: Lck inhibitory activity, selectivity for Btk (Z'-LYTE kinase assay). The class given is biochemical. The following applies: ratio of the IC50 values of the individual kinases. On the procedure:
as §4

Series [3] deals with Human liver cells. Briefly: Ability to reduce the mitochondrial membrane potential in cultured human hepatoma cells (JC-1). The class given is cell-based. The following applies: JC-1, exposure for 24 hours, read-out: Ability to lower the mitochondrial membrane potential (IC50 (μM)). From the text: (§5) Measurement of the Cytotoxicity and Ability to Reduce the Mitochondrial Membrane Potential in Cultured Human Hepatoma Cells
Tissue that maintains an aerobic equilibrium, e.g., the kidneys and heart, and tissue that is exposed to high drug concentrations and carries out drug metabolism, e.g., the liver, are known to be sensitive to mitochondrial dysfunction (Drug Discovery Today, 12 (17-18), 777-785, 2007). The reduction or extinction of the mitochondrial membrane potential by a drug is caused by the direct inhibition of the electron transport system, decoupling of electron transport from ATP synthase, or the opening of a mitochondrial membrane permeability transition pore. As a consequence, measurement of the mitochondrial membrane potential of liver cells can provide a parameter for hepatotoxicity.
(§6) Human liver cells were seeded into a collagen-coated 96-well plate at a cell density of 30,000 cells/well and incubation was carried out overnight in an incubator at 37° C. in 5% CO2-95% air. The cultured cells were stained for 1 hour with 5,5′,6,6′-tetrahydro-1,1′,3,3′-tetramethyl-benzamidazolocarbocyanine iodide (JC-1) followed by treatment with the test compound. The test compound was dissolved in DMSO and then diluted with the liquid culture medium Hepatocyte Culture Medium (HCM) and added to the cells. The test compound treatment concentrations were 0, 6.25, 12.5, 25, 50, 100, 200, and 400 μmol/L. After exposure to the test compound for 24 hours, measurement was performed with a SpectraMax plate reader (Molecular Devices, LLC) at an excitation wavelength of 485 nm and a fluorescence wavelength of 538 nm and an excitation wavelength of 544 nm and a fluorescence wavelength of 590 nm. The membrane potential was determined by the ratio between the 544 nm/590 nm measurement value and the 485 nm/538 nm measurement value. After this, the ATP concentration in the cells was measured using a Celltiter Glo luminescent assay kit (Promega Corporation) in order to evaluate the cell toxicity of the test compound. The cells were lysed by the assay buffer provided with the measurement kit and the concentration of the ATP released from the cells was measured using the luciferin-luciferase enzyme activity as the index. The emission was measured using a SpectraMax plate reader. […] The ability to lower the mitochondrial membrane potential of the test compounds and the cytotoxicity of the test compounds are given in Table 3 below.

Series [4] concerns Human liver cells. Briefly: Cytotoxicity in cultured human hepatoma cells (ATP concentration, Celltiter Glo). The class given is cell-based. As to conditions: 50% decline in ATP concentration, exposure for 24 hours, read-out: Toxicity for human liver cells (IC50 (μM)). Here is the method: as §5, §6
A short description of series [5]: Stability in the rat liver microsome. As to conditions: 0.5 mg/mL microsomes, NADPH, 15 minutes at 37° C.
Procedure: (§7) Evaluation of the Stability in the Rat and Human Liver Microsome
(§8) A 0.25 mmol/L solution was prepared by diluting the test compound (10 mmol/L DMSO solution, 5 μL) with an aqueous 50% acetonitrile solution (195 μL).
(§9) 20 μL was collected immediately after the start and the reaction was stopped by the addition to 180 μL of acetonitrile that contained an internal standard (warfarin). 20 μL of this solution was stirred with 180 μL of an aqueous 50% acetonitrile solution on a filter plate for protein depletion followed by suction filtration, and the filtrate was used as the standard sample.
(§10) The previously indicated reaction solution was incubated for 15 minutes at 37° C., and 20 μL was then added to 180 μL cold acetonitrile (contained the internal standard warfarin) to stop the reaction. 20 μL of this was stirred with 180 μL of an aqueous 50% acetonitrile solution on a filter plate for protein depletion followed by suction filtration, and the filtrate was used as the standard sample.
A short description of series [6]: Stability in the human liver microsome. As to conditions: 0.5 mg/mL microsomes, NADPH, 15 minutes at 37° C. In general terms: Liver microsomes are a subcellular fraction often used to study metabolism.
Procedure: as §7, §8, §9, §10

Sequence of Human CYP2C8 (P10632 whole entry): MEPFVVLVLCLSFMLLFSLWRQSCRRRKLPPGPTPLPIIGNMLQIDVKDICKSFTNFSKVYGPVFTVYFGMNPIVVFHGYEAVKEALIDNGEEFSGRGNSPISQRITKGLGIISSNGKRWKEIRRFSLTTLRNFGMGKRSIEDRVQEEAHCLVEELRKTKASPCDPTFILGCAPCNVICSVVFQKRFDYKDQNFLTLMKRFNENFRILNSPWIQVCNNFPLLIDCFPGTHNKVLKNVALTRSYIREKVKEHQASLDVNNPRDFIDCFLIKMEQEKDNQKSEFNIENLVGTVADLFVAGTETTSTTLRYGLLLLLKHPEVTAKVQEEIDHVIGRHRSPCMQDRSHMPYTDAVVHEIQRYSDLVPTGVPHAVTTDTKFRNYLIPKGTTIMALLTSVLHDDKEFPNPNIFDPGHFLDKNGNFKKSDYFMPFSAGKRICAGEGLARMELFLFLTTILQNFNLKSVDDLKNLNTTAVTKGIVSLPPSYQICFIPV
Sequence of Btk (Q06187 whole entry): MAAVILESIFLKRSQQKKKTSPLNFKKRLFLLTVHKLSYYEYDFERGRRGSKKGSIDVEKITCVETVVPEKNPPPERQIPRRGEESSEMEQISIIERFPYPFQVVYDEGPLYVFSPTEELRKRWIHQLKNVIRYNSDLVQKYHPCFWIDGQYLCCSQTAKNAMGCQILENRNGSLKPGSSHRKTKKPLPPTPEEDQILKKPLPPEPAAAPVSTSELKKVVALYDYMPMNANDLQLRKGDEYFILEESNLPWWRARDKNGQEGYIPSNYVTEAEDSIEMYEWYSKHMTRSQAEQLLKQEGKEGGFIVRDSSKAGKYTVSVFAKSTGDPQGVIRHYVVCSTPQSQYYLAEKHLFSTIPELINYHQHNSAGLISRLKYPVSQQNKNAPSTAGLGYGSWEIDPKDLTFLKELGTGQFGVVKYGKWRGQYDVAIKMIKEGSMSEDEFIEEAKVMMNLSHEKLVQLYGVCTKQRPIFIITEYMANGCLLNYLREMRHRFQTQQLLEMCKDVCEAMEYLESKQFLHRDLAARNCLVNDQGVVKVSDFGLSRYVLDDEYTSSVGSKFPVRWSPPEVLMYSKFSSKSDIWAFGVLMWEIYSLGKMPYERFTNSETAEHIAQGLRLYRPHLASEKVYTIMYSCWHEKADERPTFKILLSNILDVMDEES
Sequence of Human CYP2C19 (P33261 whole entry): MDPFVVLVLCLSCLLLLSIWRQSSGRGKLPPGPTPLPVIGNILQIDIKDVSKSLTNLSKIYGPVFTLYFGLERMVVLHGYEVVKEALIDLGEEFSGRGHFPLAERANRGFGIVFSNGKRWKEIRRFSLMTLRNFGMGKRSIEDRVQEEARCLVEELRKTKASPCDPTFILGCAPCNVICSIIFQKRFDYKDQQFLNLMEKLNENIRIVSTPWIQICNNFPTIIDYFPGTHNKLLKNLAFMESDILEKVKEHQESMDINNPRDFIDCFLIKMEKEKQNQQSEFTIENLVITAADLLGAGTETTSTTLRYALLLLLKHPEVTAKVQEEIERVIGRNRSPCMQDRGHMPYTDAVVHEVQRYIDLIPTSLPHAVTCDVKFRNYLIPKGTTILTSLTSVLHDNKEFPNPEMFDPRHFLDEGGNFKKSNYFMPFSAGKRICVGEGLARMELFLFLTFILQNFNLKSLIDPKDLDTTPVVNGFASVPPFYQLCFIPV
Sequence of LynA (P07948 whole entry): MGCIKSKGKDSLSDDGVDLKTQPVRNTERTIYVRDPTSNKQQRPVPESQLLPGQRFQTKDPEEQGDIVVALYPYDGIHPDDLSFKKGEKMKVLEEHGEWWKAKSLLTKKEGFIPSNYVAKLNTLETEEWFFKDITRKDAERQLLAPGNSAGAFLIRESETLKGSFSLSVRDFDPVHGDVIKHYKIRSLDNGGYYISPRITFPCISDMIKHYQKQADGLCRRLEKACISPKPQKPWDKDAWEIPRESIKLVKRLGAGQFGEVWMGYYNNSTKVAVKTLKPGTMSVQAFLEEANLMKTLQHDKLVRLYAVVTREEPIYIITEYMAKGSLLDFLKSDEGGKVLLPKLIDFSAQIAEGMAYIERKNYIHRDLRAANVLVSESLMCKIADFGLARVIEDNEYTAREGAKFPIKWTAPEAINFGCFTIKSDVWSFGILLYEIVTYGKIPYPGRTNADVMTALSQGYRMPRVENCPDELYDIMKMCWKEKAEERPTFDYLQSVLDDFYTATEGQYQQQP
Sequence of Fyn (P06241 whole entry): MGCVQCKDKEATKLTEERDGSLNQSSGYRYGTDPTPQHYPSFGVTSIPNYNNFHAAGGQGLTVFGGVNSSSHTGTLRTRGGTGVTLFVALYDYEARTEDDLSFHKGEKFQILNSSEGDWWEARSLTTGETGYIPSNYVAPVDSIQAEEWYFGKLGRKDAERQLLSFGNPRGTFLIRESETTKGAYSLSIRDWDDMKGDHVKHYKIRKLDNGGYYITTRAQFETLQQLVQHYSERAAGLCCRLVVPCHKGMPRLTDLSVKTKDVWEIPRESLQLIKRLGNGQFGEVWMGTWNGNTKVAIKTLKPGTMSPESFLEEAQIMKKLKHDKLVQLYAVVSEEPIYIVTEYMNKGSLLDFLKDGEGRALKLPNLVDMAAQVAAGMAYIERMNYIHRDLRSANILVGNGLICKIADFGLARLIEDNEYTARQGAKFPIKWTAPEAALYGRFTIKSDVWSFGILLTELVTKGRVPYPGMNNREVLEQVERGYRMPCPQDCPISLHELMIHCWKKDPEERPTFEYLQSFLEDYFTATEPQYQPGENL
Sequence of Lck (P06239 whole entry): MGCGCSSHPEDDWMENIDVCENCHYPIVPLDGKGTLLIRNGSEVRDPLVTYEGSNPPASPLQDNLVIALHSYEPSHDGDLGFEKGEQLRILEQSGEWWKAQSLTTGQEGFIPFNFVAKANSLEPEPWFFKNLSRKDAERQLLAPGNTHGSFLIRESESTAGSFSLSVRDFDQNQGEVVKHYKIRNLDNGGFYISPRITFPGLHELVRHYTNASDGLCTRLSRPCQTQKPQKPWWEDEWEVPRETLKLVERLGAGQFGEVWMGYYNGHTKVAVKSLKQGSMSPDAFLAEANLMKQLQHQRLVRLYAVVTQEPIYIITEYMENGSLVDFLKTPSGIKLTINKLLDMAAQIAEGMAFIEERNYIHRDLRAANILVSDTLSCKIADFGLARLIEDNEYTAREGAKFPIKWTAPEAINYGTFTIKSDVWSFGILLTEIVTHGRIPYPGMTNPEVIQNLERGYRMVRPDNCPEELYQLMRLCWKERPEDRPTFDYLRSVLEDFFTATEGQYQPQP

`CN(C)C/C=C/C(=O)N1CC[C@@H](n2c(=O)n(-c3ccc(Oc4ccccc4)cc3)c3c(N)ncnc32)C1` [Example 11(3), 6-amino-9-{(3R)-1-[(2E)-4-(dimethylamino)-2-butenoyl]-3-pyrrolidinyl}-7-(4-phenoxyphenyl)-7,9-dihydro-8H-purin-8-one]: the IC50 (in general, the concentration that inhibits the measured activity by half) at Human CYP2C19 is > 10 µM; against Btk, 0.014 µM; in series [1], 0.032 µM; in series [2], > 10 µM; against Human CYP2C8, > 10 µM. Moreover, the “LynA[IC50]/Btk[IC50]” value at LynA turned out to be 143. Also, at Fyn, the “Fyn[IC50]/Btk[IC50]” value was found to be 236. In addition, the “Lck[IC50]/Btk[IC50]” value at Lck worked out at 19.

In the case of `CC#CC(=O)N1CCC(n2c(=O)n(-c3ccc(Oc4ccccc4)cc3)c3c(N)ncnc32)C1` (centres unmarked) [Example 19(9), 6-amino-9-[1-(2-butynoyl)-3-pyrrolidinyl]-7-(4-phenoxyphenyl)-7,9-dihydro-8H-purin-8-one], the IC50 in the series with Human liver cells [3] is 181 µM; with Human liver cells [4] it was 97 µM.

On to `C=CC(=O)N1CCC[C@@H](n2nc(-c3ccc(Oc4ccccc4)cc3)c3c(N)ncnc32)C1` [Comparative compound A, reference compound], for which the values for the IC50 in the series with Human liver cells [3], against Human CYP2C19 and in the series on Human liver cells [4] were 39 µM, 5.6 µM and 78 µM, respectively.

As to `CN(C)C/C=C/C(=O)N1CCC(n2c(=O)n(-c3ccc(Oc4ccccc4)cc3)c3c(N)ncnc32)C1` (centres unmarked) [Example 11(24), 6-amino-9-{1-[(2E)-4-(dimethylamino)-2-butenoyl]-3-pyrrolidinyl}-7-(4-phenoxyphenyl)-7,9-dihydro-8H-purin-8-one], the IC50 amounted to 347 µM in the series on Human liver cells [3] and 213 µM in the series on Human liver cells [4]. For the same molecule, the “Residual ratio (%) in the rat liver microsome” value in series [5] is on record as 88.5%. For the same molecule, the “Residual ratio (%) in the human liver microsome” value in [6] is 100%.

As for `CC#CC(=O)N1CC[C@@H](n2c(=O)n(-c3ccc(C(=O)c4ccccc4)cc3)c3c(N)ncnc32)C1` [Example 19(40), 6-amino-7-(4-benzoylphenyl)-9-[(3R)-1-(2-butynoyl)-3-pyrrolidinyl]-7,9-dihydro-8H-purin-8-one], at Btk, the IC50 was 0.011 µM.

With `CC#CC(=O)N1CC[C@@H](n2c(=O)n(-c3ccc(Oc4ccccc4)cc3)c3c(N)ncnc32)C1` [Example 19(2), 6-amino-9-[(3R)-1-(2-butynoyl)-3-pyrrolidinyl]-7-(4-phenoxyphenyl)-7,9-dihydro-8H-purin-8-one], the IC50 with Human liver cells [3] is 200 µM; against Human CYP2C19, > 10 µM; in series [1], 0.061 µM; in [2], > 10 µM; against Human CYP2C8, > 10 µM; with Human liver cells [4] it was 135 µM.

Turning to `C=CC(=O)N1CCC(Cn2c(=O)n(-c3ccc(Oc4ccccc4)cc3)c3c(N)ncnc32)CC1` [Example 8(14), 9-[(1-acryloyl-4-piperidinyl)methyl]-6-amino-7-(4-phenoxyphenyl)-7,9-dihydro-8H-purin-8-one], the IC50 against Human CYP2C19 is > 10 µM; on Btk it was 0.004 µM; in series [1] it was 0.023 µM; in series [2], > 10 µM; against Human CYP2C8, > 10 µM. In addition, the “LynA[IC50]/Btk[IC50]” value at LynA is given as 1767. Moreover, the “Fyn[IC50]/Btk[IC50]” value on Fyn is 2500. Also, the “Lck[IC50]/Btk[IC50]” value at Lck is recorded as 220.
